This note sets out measurements from patent US20230120211A1, “HDAC Degrader” (University of Leicester, priority 2020, published 2023).

Structures are written as SMILES.

Assay [1] concerns H3K56ac. Kind of assay: H3K56ac levels in E14 mouse embryonic stem cells, quantitative western blot. Format: cell-based. To be noted: E14 mES cells, 24 h; CI-994 40 μM, Panobinostat 30 nM. The protocol:
The inventors proceeded to assess their compounds effects on HDAC activity in cells.
To examine the ability of PROTACs 1-4 to reduce HDAC1, 2 and 3 activity in cells they began by measuring H3K56ac using quantitative western blotting (see FIG. 3B).
(§1) HCT116 or mES cells were treated 24 hours after seeding. 24 hours post treatment, cells were harvested, lysed in lysis buffer (50 mM Tris-HCl, 150 mM NaCl, 0.5% NP-40, 0.5% Triton X-100) with protease inhibitor (Sigma, P8340), then incubated on ice for 30 minutes, before being centrifuged (18,000 ref, 15 minutes, 4° C.). The supernatant was collected, and protein concentrations quantified via Bradford Assay using Protein Assay Dye Reagent Concentrate (BIO-RAD). For histone extraction, an equal volume of 0.4 N H2SO4 was added to the pellets and the extracts placed at 4° C. overnight. Following overnight incubation, the tubes were centrifuged (18,000 ref, 15 minutes, 4° C.) and then the supernatant (histone extract) collected.
(§2) Western blots were run on NuPAGE™ 4-12% Bis-Tris gels with 20-30 μg of protein or 10 μL of acid-extracted histone loaded per lane, using NuPAGE™ LDS Sample Buffer (4×). PageRuler™ Plus Prestained Ladder was used for size standards. After gel electrophoresis at 140V for 75-90 minutes the separated proteins were transferred onto nitrocellulose membrane at 30V for 60 minutes. The membranes were probed with primary antibodies (listed below) for 60-90 minutes. Blots were developed with complimentary IRDye conjugated secondary antibodies and the bands visualised using the Odyssey Infrared Imaging System. Image processing and band intensity quantification was performed using Image Studio Lite.

The target in assay [2] is LSD1-CoREST-HDAC1 complex (Homo sapiens, UniProt Q13547). Description: fluorescent deacetylase assay with the LSD1-CoREST-HDAC1 complex (Example 2, FIG. 3A). It is filed as biochemical. The protocol: The inventors evaluated their preliminary PROTACs in vitro using an established fluorescent deacetylase assay with the LSD1-CoREST-HDAC1 complex. This complex was used as an exemplary HDAC multiprotein complex to determine if such heterobifunctional molecules PROTACs 1-4 can still engage the HDAC enzyme in the context of an intact multiprotein complex.
Chain of LSD1-CoREST-HDAC1 complex (Q13547 whole entry, other chains not shown): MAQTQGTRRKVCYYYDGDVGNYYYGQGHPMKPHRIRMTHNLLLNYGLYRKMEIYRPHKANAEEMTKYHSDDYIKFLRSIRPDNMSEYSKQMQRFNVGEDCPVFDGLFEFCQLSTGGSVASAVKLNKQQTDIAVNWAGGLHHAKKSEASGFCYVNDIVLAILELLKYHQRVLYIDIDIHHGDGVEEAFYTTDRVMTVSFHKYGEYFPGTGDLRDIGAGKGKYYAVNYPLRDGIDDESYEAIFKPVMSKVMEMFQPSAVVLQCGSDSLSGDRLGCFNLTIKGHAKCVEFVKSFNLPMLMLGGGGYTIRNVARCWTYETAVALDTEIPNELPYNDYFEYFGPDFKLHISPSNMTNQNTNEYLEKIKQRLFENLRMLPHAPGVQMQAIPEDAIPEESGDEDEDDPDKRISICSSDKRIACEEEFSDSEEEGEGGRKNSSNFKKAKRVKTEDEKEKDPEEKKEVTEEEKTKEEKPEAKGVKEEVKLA
Chain of LSD1-CoREST-HDAC1 complex (Q9UKL0 86-485 partner limits assumed, other chains not shown): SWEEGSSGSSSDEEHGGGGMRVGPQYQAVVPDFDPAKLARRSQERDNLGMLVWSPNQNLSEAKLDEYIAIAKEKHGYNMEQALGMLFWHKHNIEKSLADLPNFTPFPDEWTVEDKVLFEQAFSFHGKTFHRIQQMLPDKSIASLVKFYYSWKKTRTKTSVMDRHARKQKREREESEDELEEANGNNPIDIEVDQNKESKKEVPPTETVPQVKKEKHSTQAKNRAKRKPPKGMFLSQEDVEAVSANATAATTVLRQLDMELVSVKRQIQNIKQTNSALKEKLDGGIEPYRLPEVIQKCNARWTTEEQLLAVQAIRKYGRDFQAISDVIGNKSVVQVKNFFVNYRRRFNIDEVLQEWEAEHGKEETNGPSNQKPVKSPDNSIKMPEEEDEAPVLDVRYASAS
(§3) Inhibition tests against LSD1-HDAC-CoREST complex were performed using a two-enzyme fluorescence-based HDAC assay. The inhibitor/PROTACs were dissolved at 50 mM in DMSO, then 1:2 serial dilutions performed using HDAC assay buffer (50 mM Tris pH 7.5, 150 mM NaCl) to afford range of concentrations.
(§4) The assays were performed in black 96-well plates with a reaction volume of 50 μL per well. All determinations were performed in triplicate. […] After an incubation of 20 minutes at 37° C. and 150 rpm, deacetylation was stopped by the addition of 50 μL of a developing solution containing trypsin (50 mM Tris pH 7.5, 100 mM NaCl, 10 mg/mL trypsin). […] HDAC Activity was calculated by subtracting the average blank fluorescence from the well fluorescence. Graphpad Prism software was utilised to determine IC50 values.

The target of assay [3] is T1, HDAC1 (Homo sapiens, UniProt Q13547).
T1 construct: endogenous in cells; host or cells: HCT116
T1 sequence (Q13547 whole entry): as the sequence (Q13547 whole entry, other chains not shown) above
Description: HDAC1 degradation in HCT116 cells, quantitative western blot. Format: cell-based. To be noted: for Dmax: HCT-116, 24 h, read-out: HDAC1 Degrader (% Degradation). As to the method:
(§5) The compounds were screened at 0.1 μM, 1 μM and 10 μM in a HCT116 cell line. The maximum degradation observed irrespective of the concertation was recorded. The screening of the new compounds was done in 6-well plates, 5 mL media, with 400,000 cells per well to increase throughput.
as §1
(§6) PageRuler™ Plus Prestained Ladder was used for size standards. After gel electrophoresis at 140V for 75-90 minutes the separated proteins were transferred onto nitrocellulose membrane at 30V for 60 minutes. The membranes were probed with primary antibodies (listed below) for 60-90 minutes. Blots were developed with complimentary IRDye conjugated secondary antibodies and the bands visualised using the Odyssey Infrared Imaging System. Image processing and band intensity quantification was performed using Image Studio Lite.
On the technique in general: Immunoblotting shows a protein as a band on a membrane.

For another assay, the target named is NuRD (Homo sapiens, UniProt Q13547). Description: HDAC inhibition assay, NuRD complex (Table 1). It is filed as biochemical.
Chain of NuRD (Q13547 whole entry): as the sequence (Q13547 whole entry, other chains not shown) above
Chain of NuRD (Q13330 162-546 partner limits assumed): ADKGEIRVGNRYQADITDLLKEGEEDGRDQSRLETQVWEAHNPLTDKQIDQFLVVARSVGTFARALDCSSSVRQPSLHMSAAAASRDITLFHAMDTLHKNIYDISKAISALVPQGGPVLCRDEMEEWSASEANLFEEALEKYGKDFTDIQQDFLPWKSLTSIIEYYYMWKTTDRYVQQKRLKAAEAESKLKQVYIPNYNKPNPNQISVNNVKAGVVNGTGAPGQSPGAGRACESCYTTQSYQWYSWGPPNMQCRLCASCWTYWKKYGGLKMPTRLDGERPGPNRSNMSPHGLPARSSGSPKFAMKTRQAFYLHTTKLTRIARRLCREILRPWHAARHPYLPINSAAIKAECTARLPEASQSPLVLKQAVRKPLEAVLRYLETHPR
Chain of NuRD (Q09028 whole entry partner): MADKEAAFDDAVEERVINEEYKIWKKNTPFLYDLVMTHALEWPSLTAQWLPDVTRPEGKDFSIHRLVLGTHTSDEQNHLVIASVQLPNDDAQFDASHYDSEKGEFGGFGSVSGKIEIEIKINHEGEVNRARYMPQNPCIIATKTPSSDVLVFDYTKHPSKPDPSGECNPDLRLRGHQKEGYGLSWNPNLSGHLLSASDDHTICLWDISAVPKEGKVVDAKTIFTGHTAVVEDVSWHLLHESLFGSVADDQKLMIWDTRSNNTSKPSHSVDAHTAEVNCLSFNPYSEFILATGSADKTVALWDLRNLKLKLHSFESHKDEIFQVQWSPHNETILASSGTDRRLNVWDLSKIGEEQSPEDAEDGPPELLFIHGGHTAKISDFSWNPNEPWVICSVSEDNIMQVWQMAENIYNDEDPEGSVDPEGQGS
Assay [4] deals with T1, HDAC1. Description: HDAC1 degradation in HCT116 cells, quantitative western blot. Particulars: HCT116, 24 h, 10 nM. It is filed as cell-based.
The target of assay [5] is T2, HDAC2 (Homo sapiens, UniProt Q92769).
T2 construct: endogenous in cells; host or cells: HCT116
T2 sequence (Q92769 whole entry): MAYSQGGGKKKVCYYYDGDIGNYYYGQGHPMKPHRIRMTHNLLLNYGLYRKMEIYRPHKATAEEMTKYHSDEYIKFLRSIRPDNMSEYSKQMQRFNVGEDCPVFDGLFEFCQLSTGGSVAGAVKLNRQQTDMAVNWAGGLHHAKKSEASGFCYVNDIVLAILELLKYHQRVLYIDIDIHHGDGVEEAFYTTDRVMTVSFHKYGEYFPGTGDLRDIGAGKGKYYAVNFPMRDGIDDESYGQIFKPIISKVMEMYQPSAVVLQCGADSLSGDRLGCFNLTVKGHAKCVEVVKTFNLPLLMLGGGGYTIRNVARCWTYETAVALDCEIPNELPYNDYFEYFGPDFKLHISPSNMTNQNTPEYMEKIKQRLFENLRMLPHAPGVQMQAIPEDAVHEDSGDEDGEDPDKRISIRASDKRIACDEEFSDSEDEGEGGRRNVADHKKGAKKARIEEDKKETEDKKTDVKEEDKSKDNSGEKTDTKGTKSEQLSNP
Kind of assay: HDAC2 degradation in HCT116 cells, quantitative western blot. It is filed as cell-based. Particulars: for Dmax: HCT-116, 24 h, read-out: HDAC 2 Degrader (% Degradation). The protocol: as §5, §1, §6

For another assay, the system named is H3K9ac. Kind of assay: Histone H3 Lys9 acetylation levels in HCT116 cells. Format: cell-based, human. Particulars: HCT116, 24 h, 10 μM. The protocol:
Acetylation levels of Histone H3 Lys9 (H3K9ac), another established residue for HDAC activity, were also determined in HCT116 cells after 24 hours treatment with PROTAC 4.
as §1
Western blots were run on NuPAGE™ 4-12% Bis-Tris gels with 20-30 μg of protein or 10 μL of acid-extracted histone loaded per lane, using NuPAGE™ LDS Sample Buffer (4×). PageRuler™ Plus Prestained Ladder was used for size standards. After gel electrophoresis at 140V for 75-90 minutes the separated proteins were transferred onto nitrocellulose membrane at 30V for 60 minutes. […] Image processing and band intensity quantification was performed using Image Studio Lite.

In a further assay the target is CoREST (Homo sapiens, UniProt Q13547). Kind of assay: HDAC inhibition assay, CoREST complex (Table 1, run under different conditions). Format: biochemical. To be noted: Table 1 conditions (differ from FIG. 3). As to the method:
as §3, §4

In a further assay the target is MiDAC (Homo sapiens, UniProt Q13547). Kind of assay: HDAC inhibition assay, MiDAC complex (Table 1). It is filed as biochemical.
Chain of MiDAC (Q13547 whole entry): as the sequence (Q13547 whole entry, other chains not shown) above
Chain of MiDAC (Q6PJG2 628-887 partner limits assumed): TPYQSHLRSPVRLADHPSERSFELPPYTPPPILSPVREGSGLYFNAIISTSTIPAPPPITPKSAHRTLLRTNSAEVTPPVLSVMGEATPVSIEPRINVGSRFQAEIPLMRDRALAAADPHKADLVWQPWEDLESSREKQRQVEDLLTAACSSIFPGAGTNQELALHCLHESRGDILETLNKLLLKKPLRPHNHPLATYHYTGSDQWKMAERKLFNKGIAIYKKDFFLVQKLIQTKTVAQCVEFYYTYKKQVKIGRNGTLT
Chain of MiDAC (Q9H147 whole entry partner): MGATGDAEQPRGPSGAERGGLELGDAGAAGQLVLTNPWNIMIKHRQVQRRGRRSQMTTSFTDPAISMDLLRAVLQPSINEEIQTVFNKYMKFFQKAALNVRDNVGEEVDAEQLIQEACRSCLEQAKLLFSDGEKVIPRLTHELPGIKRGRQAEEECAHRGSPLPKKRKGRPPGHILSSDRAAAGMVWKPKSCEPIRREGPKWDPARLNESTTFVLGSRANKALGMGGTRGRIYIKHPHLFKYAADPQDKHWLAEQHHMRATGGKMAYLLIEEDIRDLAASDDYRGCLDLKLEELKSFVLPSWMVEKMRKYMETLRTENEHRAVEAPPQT
A further assay has as its target SMRT (Homo sapiens, UniProt O15379). Description: HDAC inhibition assay, SMRT complex (Table 1). Format: biochemical.
For assay [6], the system named is HCT116 colon cancer cell line. Description: Cell cycle / cell death by FACS in HCT116 colon cancer cell line. Format: cell-based, human. Particulars: HCT116, 48 hours, 10 μM. As to the method: The inventors then investigated the effect of PROTAC 4 on the cell cycle in the colon cancer HCT116 cell line.
[…] Cells were washed in PBS prior to incubation with […] of propidium iodide and RNase A (10 μg/mL) for 30 min at room temperature in the dark. Samples were analysed using the BD FACSCanto II flow cytometer (BD Biosciences) in the PE A channel with BD FACSDiva software.
(Flow cytometry measures light scatter and fluorescence of single cells or particles in a stream.)

In assay [7] the target is T2, HDAC2. Kind of assay: HDAC2 degradation in HCT116 cells, quantitative western blot. Format: cell-based. To be noted: HCT116, 24 h, 10 nM.
For the next assay, the target named is T3, HDAC3 (Homo sapiens, UniProt O15379).
T3 construct: endogenous in cells; host or cells: HCT116
T3 sequence (O15379 whole entry): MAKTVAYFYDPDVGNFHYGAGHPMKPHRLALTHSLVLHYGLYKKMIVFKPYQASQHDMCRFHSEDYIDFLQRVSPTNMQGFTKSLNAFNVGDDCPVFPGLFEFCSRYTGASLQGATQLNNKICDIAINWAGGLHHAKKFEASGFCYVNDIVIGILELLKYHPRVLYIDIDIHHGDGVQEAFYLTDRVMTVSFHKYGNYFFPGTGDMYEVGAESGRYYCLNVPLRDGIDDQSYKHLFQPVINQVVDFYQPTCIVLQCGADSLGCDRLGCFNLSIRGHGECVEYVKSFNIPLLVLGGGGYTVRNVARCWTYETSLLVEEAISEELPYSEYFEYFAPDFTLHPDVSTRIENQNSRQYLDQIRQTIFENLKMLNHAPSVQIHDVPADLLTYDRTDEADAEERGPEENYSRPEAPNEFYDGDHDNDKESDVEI
Description: HDAC3 degradation in HCT116 cells, quantitative western blot. It is filed as cell-based. To be noted: for Dmax: HCT-116, 24 h, HCT116, screened at 0.1, 1 and 10 μM, maximum degradation irrespective of concentration, read-out: HDAC 3 degrader (% Degradation). As to the method:
as §5, §1, §6

Assay [8] relates to H3K56Ac. Description: Increase of H3K56Ac (Table 1 screen). It is filed as cell-based, human. Particulars: HCT116 screen; cell line not restated at the table. The protocol:
as §5, §1, §2

[9] abbreviates: HCT116, 24 h, 1 μM, remaining level.
[10] abbreviates: HCT116, screened at 0.1, 1 and 10 μM, maximum degradation irrespective of concentration.

Chain of CoREST (Q13547 whole entry, other chains not shown): as the sequence (Q13547 whole entry, other chains not shown) above
Chain of CoREST (Q9UKL0 86-485 partner limits assumed, other chains not shown): as the sequence (Q9UKL0 86-485 partner limits assumed, other chains not shown) above
Chain of SMRT (O15379 whole entry): as the sequence (O15379 whole entry) above
Chain of SMRT (Q9Y618 389-480 partner limits assumed): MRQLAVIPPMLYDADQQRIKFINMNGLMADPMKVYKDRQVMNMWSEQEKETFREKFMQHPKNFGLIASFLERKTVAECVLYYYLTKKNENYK

Turning to `CC(=O)Nc1ccc(C(=O)Nc2ccccc2N)cc1` [CI-994, 4-acetamido-N-(2-aminophenyl)benzamide, reference compound], in the assay with H3K56ac [1], the H3K56 acetylation level entry is “increased”.
`CC(=O)Nc1ccc(C(=O)Nc2ccccc2NC(=O)OC(C)(C)C)cc1` [Compound 5, Tert-butyl (2-(4-acetamidobenzamido)phenyl)carbamate, reference compound]: in assay [2] (LSD1-CoREST-HDAC1 complex), the HDAC inhibition entry is reported as “no HDAC inhibition”.
`Nc1ccccc1NC(=O)c1ccc(NC(=O)CCCCCCCCCCCNC(=O)COc2cccc3c2C(=O)N(C2CCC(=O)NC2=O)C3=O)cc1` (stereo not shown) [PROTAC2, N-(2-aminophenyl)-4-(12-(2-((2-(2,6-dioxopiperidin-3-yl)-1,3-dioxoisoindolin-4-yl)oxy)acetamido)dodecanamido)benzamide]: the H3K56 acetylation level result with H3K56ac [1] is “increase in acetylation to similar levels”.
For the molecule `Cc1ncsc1-c1ccc(CNC(=O)[C@@H]2C[C@@H](O)CN2C(=O)[C@@H](NC(=O)CCCCCCCCCCC(=O)Nc2ccc(C(=O)Nc3ccccc3N)cc2)C(C)(C)C)cc1` [PROTAC4, N1-(4-((2-aminophenyl)carbamoyl)phenyl)-N12-((S)-1-((2S,4R)-4-hydroxy-2-((4-(4-methylthiazol-5-yl)benzyl)carbamoyl)pyrrolidin-1-yl)-3,3-dimethyl-1-oxobutan-2-yl)dodecanediamide], the HDAC1 degradation entry was “approximately 50%” at HDAC1 [3] (HCT116, 24 h, 1 μM) and “near complete degradation” at HDAC1 [3] (HCT116, 24 h, 10 μM). Moreover, at HDAC1 [3] (setting [9]), the “HDAC1 level (DMSO control = 100%)” value was 40-48%. Besides, the figures for the Dmax on HDAC1 [3] (setting [10]), at HDAC2 [5] (setting [10]) and on HDAC3 were 85%, 76% and 63%, respectively. Further, the IC50 (in general, the concentration that gives 50% inhibition) on NuRD was 418 nM; in assay [2] (LSD1-CoREST-HDAC1 complex in vitro) it was 16800 nM; on CoREST it was 394 nM; on MiDAC, 336 nM; on SMRT, 414 nM. For the same molecule, the HDAC1 levels result on HDAC1 [4] is reported as “not recovered”. Further, the HDAC2 degradation entry on HDAC2 [5] (HCT116, 24 h, 1 μM) is listed as “approximately 50%”; on HDAC2 [5] (HCT116, 24 h, 10 μM), “near complete degradation”. Moreover, the “HDAC2 level (DMSO control = 100%)” value at HDAC2 [5] (setting [9]) is on record as 40-48%. The “H3K9 acetylation levels compared to DMSO control” value in the assay with H3K9ac was “highly elevated”. In the assay on H3K56ac [1], the H3K56 acetylation level entry is recorded as “increase in acetylation to similar levels”. Besides, the cell death entry in assay [6] is recorded as “significant cell death”. The HDAC2 levels entry at HDAC2 [7] is “not recovered”. Moreover, the HDAC3 degradation result at HDAC3 (HCT116, 24 h, 1 μM) was “approximately 50%”. Moreover, on HDAC3 (setting [9]), the “HDAC3 level (DMSO control = 100%)” value is given as 40-48%. Moreover, the HDAC3 levels entry on HDAC3 (HCT116, 24 h, 10 μM) is on record as “decreased”.
As for `Cc1ncsc1-c1ccc(CNC(=O)[C@@H]2C[C@@H](O)CN2C(=O)[C@@H](NC(=O)COCCCCCCCCC(=O)Nc2ccc(C(=O)Nc3ccccc3N)cc2)C(C)(C)C)cc1` [PROTAC13, (2S,4R)-1-((S)-2-(2-((9-((4-((2-aminophenyl)carbamoyl)phenyl)amino)-9-oxononyl)oxy)acetamido)-3,3-dimethylbutanoyl)-4-hydroxy-N-(4-(4-methylthiazol-5-yl)benzyl)pyrrolidine-2-carboxamide], the Dmax on HDAC1 [3] (setting [10]) was found to be 58%; on HDAC2 [5] (setting [10]), 52%; at HDAC3, 69%. Further, the IC50 was 1180 nM against NuRD, 845 nM against CoREST, 1430 nM against MiDAC and 345 nM against SMRT.
For `Cc1ncsc1-c1ccc(CNC(=O)[C@@H]2C[C@@H](O)CN2C(=O)[C@@H](NC(=O)CCCCCCCCCCC(=O)Nc2ccc(C(=O)Nc3ccc(F)cc3N)cc2)C(C)(C)C)cc1` [PROTAC17, N1-(4-((2-amino-4-fluorophenyl)carbamoyl)phenyl)-N12-((S)-1-((2S,4R)-4-hydroxy-2-((4-(4-methylthiazol-5-yl)benzyl)carbamoyl)pyrrolidin-1-yl)-3,3-dimethyl-1-oxobutan-2-yl)dodecanediamide], the figures for the Dmax at HDAC1 [3] (setting [10]), on HDAC2 [5] (setting [10]) and on HDAC3 were 58%, 21% and 46%, respectively. The “Increase H3K56Ac (Y/N/partial)” value in the assay on H3K56Ac [8] is on record as “partial”. The IC50 is 3810 nM against CoREST and 860 nM on SMRT.
As for `Cc1ncsc1-c1ccc(CNC(=O)[C@@H]2C[C@@H](O)CN2C(=O)[C@@H](NC(=O)COCCCCCCCCCOCC(=O)Nc2ccc(C(=O)Nc3ccc(F)cc3N)cc2)C(C)(C)C)cc1` [PROTAC20, (2S,4R)-1-((S)-2-(2-((9-(2-((4-((2-amino-4-fluorophenyl)carbamoyl)phenyl)amino)-2-oxoethoxy)nonyl)oxy)acetamido)-3,3-dimethylbutanoyl)-4-hydroxy-N-(4-(4-methylthiazol-5-yl)benzyl)pyrrolidine-2-carboxamide], the Dmax on HDAC1 [3] (setting [10]) was 51%; at HDAC2 [5] (setting [10]) it was 26%; on HDAC3 it was 67%. For the same molecule, in the assay on H3K56Ac [8], the “Increase H3K56Ac (Y/N/partial)” value was “partial”.
`CN[C@@H](C)C(=O)N[C@H](C(=O)N1C[C@@H](NC(=O)COCCOCCOCC(=O)Nc2ccc(C(=O)Nc3ccccc3N)cc2)C[C@H]1C(=O)N[C@@H]1CCCc2ccccc21)C1CCCCC1` [PROTAC28, (2S,4S)-4-(2-(2-(2-(2-((4-((2-aminophenyl)carbamoyl)phenyl)amino)-2-oxoethoxy)ethoxy)ethoxy)acetamido)-1-((S)-2-cyclohexyl-2-((S)-2-(methylamino)propanamido)acetyl)-N-((R)-1,2,3,4-tetrahydronaphthalen-1-yl)pyrrolidine-2-carboxamide]: on HDAC1 [3] (setting [10]), the “HDAC1 Degrader (% Degradation)” value was “No”. On HDAC2 [5] (setting [10]), the “HDAC 2 Degrader (% Degradation)” value is “No”. The “Increase H3K56Ac (Y/N/partial)” value with H3K56Ac [8] is “partial”. Moreover, the Dmax on HDAC3 was determined as 57%.
